How the values were obtained:
[1] = Selectivity index, ratio of CC50 for CEF cells to EC50 for Influenza A virus (A/Korea/KBNP-0028/2000(H9N2)); assay type: toxicity, cell-based; conditions: chicken
[2] = Cytotoxicity against CEF cells by MTT assay; assay type: cell-based, Gallus gallus; conditions: chicken
[3] = test system: Influenza A virus; experiment: Antiviral activity against Influenza A virus (A/Korea/KBNP-0028/2000(H9N2)) infected in chicken egg after 5 days by hemagglutinination assay; assay type: functional, organism-based; conditions: 120 h

Q: Which results are given for `CC(=O)N[C@H]1[C@H]([C@H](O)[C@H](O)CO)OC(C(=O)O)=C[C@@H]1N=C(N)N` [ZANAMIVIR]?
A: selectivity ratio [1]: > 44; CC50 [2]: > 753 µM

Q: Which results are given for `O=C(CCc1ccc(O)c(O)c1)C[C@H](CCc1ccc(O)c(O)c1)O[C@@H]1OC[C@@H](O)[C@H](O)[C@H]1OC(=O)/C=C/c1ccc(O)cc1` [OREGONOYL A]?
A: EC50 [3]: > 350 µM; CC50 [2]: > 500 µM

Q: Which EC50 [3] does the source give for `O=C(/C=C/CCc1ccc(O)c(O)c1)CCc1ccc(O)c(O)c1` [DEHYDROHIRSUTANONOL] here?
A: Its EC50 is over 350 µM.

Q: And the CC50 [2]?
A: Its CC50 is over 500 µM.

Q: What does the source list for `COc1cc(/C=C/C(=O)O[C@H]2[C@H](O[C@@H](CCc3ccc(O)c(O)c3)CC(=O)CCc3ccc(O)c(O)c3)OC[C@@H](O)[C@@H]2O)ccc1O` [OREGONOYL B]?
A: EC50 [3]: > 350 µM; CC50 [2]: > 500 µM

Q: Which results are given for `O=C(CCc1ccc(O)c(O)c1)C[C@@H](O)CCc1ccc(O)c(O)c1` [HIRSUTANONOL]?
A: EC50 [3]: > 350 µM; CC50 [2]: > 500 µM

Q: For `O=C(CCc1ccc(O)c(O)c1)C[C@H](CCc1cccc(O)c1)O[C@@H]1OC[C@@H](O)[C@H](O)[C@H]1O` [ALNUSIDE A], which EC50 [3] is on record?
A: Its EC50 is over 350 µM.

Q: And the CC50 [2]?
A: Its CC50 is over 500 µM.

Q: For `O=C(CCc1ccc(O)cc1)C[C@H](CCc1cccc(O)c1)O[C@@H]1OC[C@@H](O)[C@H](O)[C@H]1O`, which EC50 [3] is on record?
A: Its EC50 is 56.1 µM.

Q: What about the selectivity ratio [1] of the same compound?
A: The selectivity ratio was over 10.

Q: What about the CC50 [2] of the same compound?
A: Its CC50 is over 560 µM.

Reference: ChEMBL document CHEMBL1159081, “Anti-influenza diarylheptanoids from the bark of Alnus japonica” (Bioorg Med Chem Lett, 2010)
